The text below walks through data of patent US12060347B2 (BRISTOL-MYERS SQUIBB COMPANY, priority 2016, dated 2024).

For orientation: IC50 means the midpoint of a concentration-inhibition curve.

The test addresses T1, human PAR4 (Homo sapiens, UniProt Q96RI0).
T1 construct: expressed in transfected cells; host or cells: HEK293 PAR4 Clone 1.2A (BMS Arctic ID 383940)
T1 sequence (Q96RI0 18-385): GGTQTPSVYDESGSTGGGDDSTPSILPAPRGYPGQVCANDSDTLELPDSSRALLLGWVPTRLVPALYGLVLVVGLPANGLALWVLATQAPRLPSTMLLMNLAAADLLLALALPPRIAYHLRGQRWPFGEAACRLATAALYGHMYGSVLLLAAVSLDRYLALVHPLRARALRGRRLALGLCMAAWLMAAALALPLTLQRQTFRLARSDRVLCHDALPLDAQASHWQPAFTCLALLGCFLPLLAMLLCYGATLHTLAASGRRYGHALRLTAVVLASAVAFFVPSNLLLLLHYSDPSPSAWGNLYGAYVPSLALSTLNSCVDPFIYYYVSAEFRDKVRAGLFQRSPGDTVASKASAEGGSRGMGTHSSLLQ
Nature of the test: PAR4 FLIPR assay: antagonism of agonist-peptide-induced calcium mobilization in PAR4-expressing HEK293 cells. The class given is cell-based. To be noted: H-Ala-Phe(4-F)-[…]NH2-induced intracellular calcium mobilization, 11-point curves. Background: A change in cytosolic calcium serves as a functional read-out for many receptors and channels.

`COc1cnc2c(-c3nc4cc(F)c(OC[C@@H](C)OC(=O)Nc5ccc(C(=O)NCC(C)(C)O)nc5)nc4s3)cc(C)cc2n1` [Example 741, (R)-1-((6-fluoro-2-(2-methoxy-7-methylquinoxalin-5-yl)thiazolo[5,4-b]pyridin-5-yl)oxy) propan-2-yl (6-((2-hydroxy-2-methylpropyl)carbamoyl)pyridin-3-yl)carbamate]: the IC50 worked out at 2.1 nM. Under `CCOC(=O)COc1cc(C)c2nc(-c3cc(Cl)cc4nc(OC)cnc34)sc2c1` [Example 250, Ethyl 2-((2-(7-chloro-2-methoxyquinoxalin-5-yl)-4-methylbenzo[d]thiazol-6-yl)oxy) acetate] stands 31 nM; under `COCc1cnc2c(-c3nc4c(Cl)cc(OCCNS(=O)(=O)c5ccc(F)cc5)cc4s3)cc(C)cc2n1` [Example 101, N-(2-(4-chloro-2-(2-(methoxymethyl)-7-methylquinoxalin-5-yl)benzo[d]thiazol-6-yloxy)ethyl)-4-fluorobenzenesulfonamide], 0.2 nM; under `Cc1cc(-c2nc3cccc(NC(=O)OCc4ccccc4)c3s2)c2ncc(OC(F)F)nc2c1` [Example 76, benzyl 2-(2-(difluoromethoxy)-7-methylquinoxalin-5-yl)benzo[d]thiazol-7-ylcarbamate], 2.1 nM. Consider `COc1cnc2c(-c3nc4cc(F)c(O[C@@H](C)[C@@H](C)OC(=O)Nc5cnc(OC[C@@H](C)O)nc5)cc4s3)cc(C)cc2n1` [Example 578, (2R,3S)-3-((5-fluoro-2-(2-methoxy-7-methylquinoxalin-5-yl)benzo[d]thiazol-6-yl)oxy)butan-2-yl (2-((R)-2-hydroxypropoxy)pyrimidin-5-yl)carbamate], for which the IC50 turned out to be 5.8 nM.

As for `COc1cc(C(C)(C)O)c2nc(-c3cc(C)cc4nc(OC)cnc34)sc2c1` [Example 627, 2-(6-methoxy-2-(2-methoxy-7-methylquinoxalin-5-yl)benzo[d]thiazol-4-yl)propan-2-ol], the IC50 was determined as 1400 nM. Under `COc1cnc2c(-c3nc4c(Cl)c(F)c(OC[C@@H](C)OC(=O)Nc5ccc(CCO)nc5)cc4s3)cc(C)cc2n1` [Example 542, (R)-1-((4-chloro-5-fluoro-2-(2-methoxy-7-methylquinoxalin-5-yl)benzo[d]thiazol-6-yl)oxy)propan-2-yl (6-(2-hydroxyethyl)pyridin-3-yl)carbamate] stands 1.6 nM; under `COc1cnc2c(-c3nc4cc(F)c(O[C@@H](C)[C@@H](C)OC(=O)Nc5cnc(CO)nc5)nc4s3)cc(C)cc2c1` [Example 792, (2R,3S)-3-((6-fluoro-2-(3-methoxy-6-methylquinolin-8-yl)thiazolo[5,4-b]pyridin-5-yl)oxy)butan-2-yl (2-(hydroxymethyl)pyrimidin-5-yl)carbamate], 11 nM. Turning to `COc1cnc2c(-c3nc4cc(F)c(OC[C@@H](C)OC(=O)Nc5ccc(CO)nc5)nc4s3)cc(C)cc2n1` [Example 694, (R)-1-((6-fluoro-2-(2-methoxy-7-methylquinoxalin-5-yl)thiazolo[5,4-b]pyridin-5-yl)oxy) propan-2-yl (6-(hydroxymethyl)pyridin-3-yl)carbamate], the IC50 was 2.1 nM.

Take `COc1cnc2c(-c3nc4c(Cl)c(F)c(O[C@@H](C)[C@@H](C)OC(=O)Nc5cnc(OCCO)nc5)cc4s3)cc(Cl)cc2c1` [Example 795, (2R,3S)-3-((4-chloro-2-(6-chloro-3-methoxyquinolin-8-yl)-5-fluorobenzo[d]thiazol-6-yl)oxy)butan-2-yl (2-(2-hydroxyethoxy)pyrimidin-5-yl)carbamate]: the IC50 was 0.8 nM. Under `Cc1cc(-c2nc3cc(F)c(O[C@@H](C)[C@@H](C)OC(=O)Nc4cnc(C)nc4)cc3s2)c2ncc(OCC(F)F)nc2c1` [Example 827, (2R,3S)-3-((2-(2-(2,2-difluoroethoxy)-7-methylquinoxalin-5-yl)-5-fluorobenzo[d]thiazol-6-yl)oxy)butan-2-yl (2-methylpyrimidin-5-yl)carbamate] stands 6.2 nM; under `COc1cnc2c(-c3nc4cc(F)c(OC[C@@H](C)OC(=O)Nc5ccc(C(=O)N6CC[C@@H](O)C6)nc5)cc4s3)cc(C)cc2n1` [Example 475], 4.8 nM.

For `COc1cnc2c(-c3nc4cc(F)c(O[C@@H](C)[C@@H](C)OC(=O)Nc5cnc(C(C)(C)O)nc5)cc4s3)cc(C)cc2n1` [Example 501, (2R,3S)-3-((5-fluoro-2-(2-methoxy-7-methylquinoxalin-5-yl)benzo[d]thiazol-6-yl)oxy)butan-2-yl (2-(2-hydroxypropan-2-yl)pyrimidin-5-yl)carbamate], the IC50 was 4 nM. To `COc1cnc2c(-c3nc4cc(F)c(O[C@@H](C)[C@@H](C)OC(=O)Nc5cnc(N(C)C)nc5)cc4s3)cc(C)cc2n1` [Example 598, (2R,3S)-3-((5-fluoro-2-(2-methoxy-7-methylquinoxalin-5-yl)benzo[d]thiazol-6-yl)oxy)butan-2-yl (2-(dimethylamino)pyrimidin-5-yl)carbamate] belongs 3.7 nM.

Consider `COc1cc(C(O)C2(CO)CCC2)c2nc(-c3cc(C)cc4nc(OC)cnc34)sc2c1` (centres unmarked) [Example 646, (1-(hydroxymethyl)cyclobutyl)(6-methoxy-2-(2-methoxy-7-methylquinoxalin-5-yl)benzo[d]thiazol-4-yl)methanol], for which the IC50 stood at 3.8 nM. To `COCc1cnc2c(-c3nc4ccccc4s3)cc(C)cc2n1` [Example 256, 2-(2-(methoxymethyl)-7-methylquinoxalin-5-yl)benzo[d]thiazole] belongs 1.2 nM. To `COCCOc1cccc2nc(-c3cc(C)cc4nc(OC)cnc34)sc12` [Example 78, 2-(2-methoxy-7-methylquinoxalin-5-yl)-7-(2-methoxyethoxy)benzo[d]thiazole] belongs 39 nM; to `COc1cnc2c(-c3nc4c(Cl)c(F)c(OCCOC(=O)Nc5nsc(OC)n5)cc4s3)cc(C)cc2n1` [Example 363, 2-((4-chloro-5-fluoro-2-(2-methoxy-7-methylquinoxalin-5-yl)benzo[d]thiazol-6-yl)oxy)ethyl (5-methoxy-1,2,4-thiadiazol-3-yl)carbamate], 1700 nM. Under `COCc1cnc2c(-c3nc4c(Cl)c(F)c(OCC(=O)OC)cc4s3)cc(C)cc2n1` [Example 292, methyl 2-((4-chloro-5-fluoro-2-(2-(methoxymethyl)-7-methylquinoxalin-5-yl)benzo[d]thiazol-6-yl)oxy)acetate] stands 0.8 nM. Regarding `COCc1cnc2c(-c3nc4c(C(=O)O)cc(OC)cc4s3)cc(C)cc2n1` [Example 162, 6-methoxy-2-(2-(methoxymethyl)-7-methylquinoxalin-5-yl)benzo[d]thiazole-4-carboxylic acid], the IC50 is 270 nM. To `CCOc1cnc2c(-c3nc4cc(F)c(O[C@@H](C)[C@@H](C)OC(=O)Nc5cnc([C@@H](C)O)nc5)cc4s3)cc(C)cc2n1` [Example 536, (2R,3S)-3-((2-(2-ethoxy-7-methylquinoxalin-5-yl)-5-fluorobenzo[d]thiazol-6-yl)oxy) butan-2-yl (2-((R)-1-hydroxyethyl)pyrimidin-5-yl)carbamate] belongs 4.9 nM. To `COc1cnc2c(-c3nc4cc(F)c(O[C@@H](C)[C@@H](C)OC(=O)Nc5ccc(CO)nc5)cc4s3)cc(Cl)cc2n1` [Example 831, (2R,3S)-3-((2-(7-chloro-2-methoxyquinoxalin-5-yl)-5-fluorobenzo[d]thiazol-6-yl)oxy)butan-2-yl (6-(hydroxymethyl)pyridin-3-yl)carbamate] belongs 2.2 nM. Under `COc1cc(C(O)c2ccccc2C(C)C)c2nc(-c3cc(C)cc4nc(OC)cnc34)sc2c1` (centres unmarked) [Example 643, (2-isopropylphenyl)(6-methoxy-2-(2-methoxy-7-methylquinoxalin-5-yl)benzo[d]thiazol-4-yl)methanol] stands 5.3 nM; under `Cc1cc(-c2nc3cccc(CNS(=O)(=O)c4ccccc4)c3s2)c2ncc(OC(F)F)nc2c1` [Example 66, N-((2-(2-(difluoromethoxy)-7-methylquinoxalin-5-yl)benzo[d]thiazol-7-yl)methyl)benzenesulfonamide], 28 nM. Turning to `COc1cnc2c(-c3nc4cc(F)c(OC[C@@H](C)OC(=O)Nc5ccc(C(=O)N(C)CCO)nc5)cc4s3)cc(C)cc2n1` [Example 471, (R)-1-((5-fluoro-2-(2-methoxy-7-methylquinoxalin-5-yl)benzo[d]thiazol-6-yl)oxy)propan-2-yl (6-((2-hydroxyethyl)(methyl)carbamoyl)pyridin-3-yl)carbamate], the 50% inhibitory concentration (IC50) was found to be 5.2 nM.

Turning to `COCc1cnc2c(-c3nc4c(C(O)C5CCC5)cc(OC)cc4s3)cc(C)cc2n1` (centres unmarked) [Example 166, Cyclobutyl(6-methoxy-2-(2-(methoxymethyl)-7-methylquinoxalin-5-yl)benzo[d]thiazol-4-yl)methanol], the IC50 came out at 2.8 nM. To `COCc1cnc2c(-c3nc4c(OC)c(F)c(F)cc4s3)cc(C)cc2n1` [Example 269, 5,6-difluoro-4-methoxy-2-(2-(methoxymethyl)-7-methylquinoxalin-5-yl)benzo [d]thiazole] belongs 3.6 nM. To `COc1cnc2c(-c3nc4c(C)c(F)c(OC)cc4s3)cc(CO)cc2n1` [Example 243, (8-(5-fluoro-6-methoxy-4-methylbenzo[d]thiazol-2-yl)-3-methoxyquinoxalin-6-yl) methanol] belongs 1.2 nM; to `COc1cnc2c(-c3nc4cc(F)c(OC[C@@H](C)OC(=O)Nc5ccc(C(=O)N6CCOC[C@H]6CO)nc5)cc4s3)cc(C)cc2n1` [Example 488, (R)-1-((5-fluoro-2-(2-methoxy-7-methylquinoxalin-5-yl)benzo[d]thiazol-6-yl)oxy)propan-2-yl (6-((R)-3-(hydroxymethyl)morpholine-4-carbonyl)pyridin-3-yl)carbamate], 14 nM.
